{"source": "patent US8741929B2", "about": "“Methods using 3-(4-amino-1-oxo-1,3-dihydro-isoindol-2-yl)-piperidine-2,6-dione for treatment of mantle cell lymphomas” (Celgene Corporation, priority 2006, dated 2014)", "key": {"[1]": {"test_system": "relapsed and refractory aggressive non-Hodgkin's lymphoma (NHL)", "assay": "Phase II study of oral lenalidomide monotherapy in patients", "type": "in vivo, human", "description": "A multi-center, open-label, Phase II study was conducted in patients with relapsed and refractory aggressive non-Hodgkin's lymphoma (NHL). […] Patients in the study received lenalidomide in an amount of 25mg orally once daily for days one to 21 in a 28-day cycle and continued therapy for 52 weeks as tolerated or until disease progression.\nTwenty-five patients age 45 to 80 years (median age 63), with relapsed and refractory aggressive NHL, and who had received a median of 2.5 prior treatments (range: 1-6 prior treatments), were administered with lenalidomide in an amount of 25 mg orally once daily for 21 days in the treatment cycle. Sixteen patients with aggressive NHL were evaluable for tumour assessment. Of the 16 patients, eight had diffuse large cell lymphoma, three had mantle cell lymphoma, two patients had follicular lymphoma, one had transformed lymphoma, and two had aggressive lymphoma of unknown histology."}, "[2]": {"test_system": "relapsed or refractory mantle cell lymphoma (MCL)", "quoted_text": "A single-center, open label, phase I/II study was conducted to determine the maximum tolerated dose (MTD) and to evaluate the efficacy of 3-(4-amino-1-oxo-1,3-dihydro-isoindol-2-yl)-piperidin-2,6-dione (lenalidomide or Revlimid®) in combination with rituximab for relapsed or refractory mantle cell lymphoma (MCL). Patients with one to four lines of prior therapy were eligible. Patients with prior treatment using thalidomide or rituximab, regardless of resistance, were eligible. […] A standard phase I dose escalation was used to determine MTD with dose levels at 10 mg, 15 mg, 20 mg, and 25 mg of Revlimid®. Dose-limiting toxicity (DLT) was defined as grade 3 or 4 non-hematologic or grade 4 hematologic toxicity during the first cycle.\nEach cohort had 3 patients. […] The number of cycles given ranged from one to five cycles."}, "[3]": {"settings": "25 mg daily, 21/28 days, 16 evaluable patients"}, "[4]": {"settings": "25 mg orally once daily days 1-21 of 28-day cycle, 16 evaluable patients"}, "[5]": {"settings": "first cycle, + rituximab, number of patients/events"}}, "note": "Values joined by “and” are separate entries in the source; they are usually repeats but may differ in a detail not shown here. Identical values can stand only once."}
{"compound": "Nc1cccc2c1CN(C1CCC(=O)NC1=O)C2=O", "note": "(centres unmarked) [Revlimid®, 3-(4-amino-1-oxo-1,3-dihydro-isoindol-2-yl)-piperidine-2,6-dione]", "values": [{"measurement": "complete response", "setting": "[1]; [3]", "value": "One"}, {"measurement": "partial responses", "setting": "[1]; [3]", "value": "four"}, {"measurement": "stable disease", "setting": "[1]; [3]", "value": "Four"}, {"measurement": "Grade 4 adverse reaction", "setting": "[1]; 25 mg daily, 21/28 days, of 22 patients", "value": "three"}, {"measurement": "Grade 3 and 4 adverse events", "setting": "[1]; 25 mg daily, 21/28 days, predominately haematological and Grade 3", "value": "ten of 22"}, {"measurement": "objective responses", "setting": "[1]; [4]", "value": "five"}, {"measurement": "objective responses (rate)", "setting": "[1]; [4]", "value": 31, "unit": "per cent"}, {"measurement": "disease progression", "setting": "[1]; after a median follow-up of two months (range one to seven months)", "value": "Seven"}, {"measurement": "progression free survival", "setting": "[1]; one patient with diffuse large cell lymphoma, complete response", "value": "more than 180 days"}, {"measurement": "progression free survival", "setting": "[1]; one patient with follicular lymphoma, partial response", "value": "more than 55 days"}, {"measurement": "progression free survival", "setting": "[1]; one patient with mantle cell lymphoma, partial response", "value": "more than 57 days"}, {"measurement": "progression free survival", "setting": "[1]; single patients with diffuse large cell lymphoma, partial response, listed as lenalidomide", "value": "135 days and 242 days"}, {"measurement": "stable disease", "setting": "[2]; at cycle 3 and cycle 5, respectively, + rituximab, seven evaluable", "value": "Two"}, {"measurement": "maximum tolerated dose (MTD)", "setting": "[2]; dose levels up to 20 mg Revlimid + rituximab 375 mg/m^2 weekly", "value": "the MTD has not been reached"}, {"measurement": "grade 3 toxicity (thrombocytopenia) beyond the first cycle", "setting": "[2]; during cycle 2, + rituximab, number of events", "value": 1}, {"measurement": "grade 2 anemia", "setting": "[2]; first cycle, + rituximab", "value": "one"}, {"measurement": "Grade 1 hematologic events: anemia", "setting": "[2]; [5]", "value": 1}, {"measurement": "Grade 1 hematologic events: leukopenia", "setting": "[2]; [5]", "value": 3}, {"measurement": "Grade 1 hematologic events: thrombocytopenia", "setting": "[2]; [5]", "value": 2}, {"measurement": "Grade 1 non-hematologic toxic events: fatigue", "setting": "[2]; [5]", "value": 4}, {"measurement": "Grade 1 non-hematologic toxic events: myalgias", "setting": "[2]; [5]", "value": 2}, {"measurement": "Grade 1 non-hematologic toxic events: pruritis", "setting": "[2]; [5]", "value": 3}, {"measurement": "Grade 1 non-hematologic toxic events: stomatitis", "setting": "[2]; [5]", "value": 3}, {"measurement": "Grade 2 non-hematologic toxic events: myalgias", "setting": "[2]; [5]", "value": 2}, {"measurement": "Grade 2 non-hematologic toxic events: rash", "setting": "[2]; [5]", "value": 2}, {"measurement": "study conclusion on efficacy", "setting": "[2]; particularly relapsed or refractory mantle cell lymphoma", "value": "effective in treating mantle cell lymphoma"}]}
